Experiment [1] concerns endogenous retinal stem cell populations. Briefly: Endogenous retinal stem cell proliferation after intraocular MS-818, BrdU immunostaining. In kind it is in vivo. The conditions noted are these: rat; intraocular (vitreous cavity) 10 μg/20 μl, one time injection; after three days.
Experiment [2] has as its system endogenous neural stem cell populations in the brain. Briefly: Endogenous stem cell proliferation in aged rat brain after MS-818 i.p., BrdU immunostaining. In kind it is in vivo. As to conditions: 3 mg/kg/day i.p. for 5 days. The protocol: To investigate the effect of MS-818, a pyrimidine derivative, on stem cell population in vivo, MS-818 (3 mg/kg/day, i.p.) was injected for 5 days into aged (27-month old) male Fisher 344 rats. The same volume of saline was injected into control animals. Bromodeoxyuridine (BrdU) (100 mg/kg/day i.p.) was then injected for 3 days. Twenty-four hours after the last injection, the brains were removed and fixed for immunohistochemical detection of the proliferating cells by immunostaining for BrdU.

“Also recorded” adds a separate entry of the source.

In the case of `CC1Nc2nc(N3CCCCC3)ncc2C1=O.O=C(O)/C=C\C(=O)O` (stereo not shown) [MS-818, 2-piperadino-6-methyl-5-oxo-5,6-dihydro(7H) pyrrolo[2,3-d]pyrimidine maleate], the “number of BrdU-positive cells in retina / retinal ciliary marginal zone” value in experiment [1] is listed as “dramatic increase; also recorded: clearly increased”. Further, the “proliferation and migration of stem cells in the subventricular zone” value in experiment [2] is “significant increase not only in the proliferation but also in the migration of stem cells”. For the same molecule, in experiment [2] (vs control without MS-818), the “number of BrdU positive cells in SVZ (immunohistochemistry)” value is given as “increased” and the “number of BrdU positive cells in cerebral cortex (immunohistochemistry)” value is “significantly increased”.

For the origin of these results see US8273756B2, “Use of modified pyrimidine compounds to promote stem cell migration and proliferation” (University of Central Florida Research Foundation, Inc., priority 2002, dated 2012).
